From publication PMC9532951, “Identification and characterization of a novel SNAT2 (SLC38A2) inhibitor reveals synergy with glucose transport inhibition in cancer cells” (Frontiers in Pharmacology, 2022)
Values joined by “and” are separate entries in the source; they are usually repeats but may differ in a detail not shown here. Equal entries are not always repeated.

Assays:
MDA-MB-231 cells = test: Growth assay (IncuCyte confluence), MDA-MB-231; type: cell-based, human; set-up: key to Growth (Figure 6A) / cell confluence (Figure 6F): % confluence; conditions: MDA-MB-231; Bay876 1uM; replicates 1-3
Description: (§1) Cells were seeded on 96-well flat bottom plates at approximately 3000 cells/well and incubated in growth medium (DMEM/F12 supplemented with 10% FBS, 2 mM glutamine) for 24 h. The next day, the growth medium was aspirated and exchanged with 300 μL/well of growth medium containing compounds at the indicated concentration. For live cell analysis, plates were placed in the IncuCyte system (Essen Bioscience), which was housed in a cell incubator (37°C, humidified atmosphere composed of 95% air and 5% CO2) and confluence measured at 6-h intervals or at the assay endpoint when untreated control cells reached a confluency >90%. Antibiotics (10 U/mL penicillin and 10 μg/ml streptomycin) were included in the treatment solutions.
(§2) Growth curves were generated using the Gompertz function of OriginPro software: y=ae^−e^(−k(x−xc))
(§3) Where a is the maximum confluence or upper asymptote, k is the growth rate coefficient, xc is the time point at which 50% confluence is reached (inflection point) and e is Euler’s number. Cell growth data are shown as % confluence.
(§4) Synergism between drug combinations was quantified using ZIP synergy scoring as calculated by SynergyFinder ([Yadav et al., 2015]).

GLUT1 [1] = target: T1, GLUT1 (Homo sapiens, UniProt P11166); test: [14C]glucose uptake in SKOV3 cells; type: cell-based; set-up: endogenous in cells; host or cells: SKOV3 (A19)
T1 sequence (P11166 1-492): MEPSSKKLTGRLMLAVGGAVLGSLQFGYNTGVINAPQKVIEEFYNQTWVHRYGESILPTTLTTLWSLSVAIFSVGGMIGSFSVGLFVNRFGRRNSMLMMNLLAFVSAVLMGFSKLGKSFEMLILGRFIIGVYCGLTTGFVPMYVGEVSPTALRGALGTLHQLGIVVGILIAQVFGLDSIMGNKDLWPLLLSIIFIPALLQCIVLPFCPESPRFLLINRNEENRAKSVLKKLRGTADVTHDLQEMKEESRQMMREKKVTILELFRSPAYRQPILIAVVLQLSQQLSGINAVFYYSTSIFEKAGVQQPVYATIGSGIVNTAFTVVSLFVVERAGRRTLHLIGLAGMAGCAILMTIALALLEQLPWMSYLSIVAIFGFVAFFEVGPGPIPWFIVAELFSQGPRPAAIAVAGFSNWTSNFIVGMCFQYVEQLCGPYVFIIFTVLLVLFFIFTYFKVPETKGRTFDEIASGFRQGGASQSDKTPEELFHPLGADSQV
Description: (§5) […] Modified Hanks HEPES-buffered salts solution (mHBSS; 137 mM NaCl; 5.4 mM KCl; 2.7 mM K2HPO4; 1 mM CaCl2; 0.5 mM MgCl2; 0.44 mM KH2PO4; 0.4 mM MgSO4; 5 mM D-glucose; 5 mM HEPES; pH 7.4) was used to wash and incubate cells where sodium dependent transport was measured, while N-methyl-D-glucamine (NMDG) and potassium salts substituted sodium in NMDG mHBSS to measure sodium independent uptake. For the assay, cells were seeded in 35 mm dishes and, once confluent, […] of ≥2000 cpm/nmol ([…]). After 6 min, cells were washed thrice with ice-cold mHBSS, lysed with 500 µl of 0.1 M HCl, detached with a cell scraper and triturated. A 400 µl aliquot was used for scintillation counting, while the remainder was saved for protein mass quantification by Bradford assay. Transport rates were normalised to the protein content of the culture dish.

GLUT1 [2] = target: T1, GLUT1; test: [14C]glucose uptake in MDA-MB-231 cells; type: cell-based; set-up: endogenous in cells; host or cells: MDA-MB-231 (A17)
HCC1806 cells [3] = test: Glutamine in media supernatant by LC-MS (glutamine consumption); type: cell-based, human; conditions: Bay-876 1 μM
Description: Amino acids were analyzed with an Orbitrap Q-Exactive Plus coupled to an UltiMate 3000 RSLCnano system (Thermo Fisher) as described previously ([Gauthier-Coles et al., 2021]).

[4] = set-up: method as in Kopitz et al., 2016; conditions: mice, cancer therapeutic dose; ref Kopitz et al., 2016; cited from earlier work
GLUT1 [5] = target: T1, GLUT1; test: [14C]glucose uptake in HPAFII cells; type: cell-based; set-up: endogenous in cells; host or cells: MDA-MB-231 (A17), HPAFII (A18), SKOV3 (A19)
Description: as §5

HPAFII cells = test: Growth assay (IncuCyte confluence), HPAFII; type: cell-based, human; set-up: key to Growth (Figure 6A) / cell confluence (Figure 6F): % confluence; conditions: Bay876 1uM, replicates 1-3
Description: as §1, §2, §3, §4

HCC1806 cells [6] = test: Growth assay (IncuCyte confluence), HCC1806; type: cell-based, human; conditions: Bay876 alone
Description: as §1, §2, §3

SKOV3 xenografts = test system: SKOV3 xenografts; set-up: method as in Ma et al., 2018; conditions: mice, ref Ma et al., 2018, cited from earlier work
HCC1806 cells [7] = test: Assay of glycolytic activity (extracellular lactate); type: cell-based, human; conditions: > 0.1 μM Bay-876
Description: Glycolytic activity was measured by detecting extracellular lactate levels over a 48-h time course. HCC1806 and HPAFII cells were seeded on a 24-well plate at approximately 500,000 and 700,000 cells/well, respectively, and incubated in growth medium overnight. The following day, the growth medium was aspirated and each well was washed once with growth medium and 1.3 ml of the treatment solution was added to begin the time-course. In addition to sampling the medium at the start of the experiment, 50 μL was collected from each well at the following time points: 9, 24 and 48 h. Samples were stored at −20°C until further use. Lactate was detected by an enzymatic assay, which consisted of combining in microcentrifuge tubes: 5 μl of sample, 45 μl of water; 25 μl of 40 mM NAD^+; 421 μl of buffer (1M glycine, 600 mM hydrazine sulfate, 5.6 mM EDTA; adjusted to pH 9.5 with sodium hydroxide); and 4 μL of L-lactate dehydrogenase solved at 300U/mL (3.33 mg/ml). The tubes were briefly vortexed and incubated for 15 min before transferring 200 μL of the mixture to a 96-well plate. The calibration curve spanned final concentrations from 5 to 500 μM. Absorbance was measured at 340 nm to detect NADH. Lactate production was normalised to total cellular protein per well as measured by the Bradford assay.

B0AT1 (SLC6A19) = target: T2, B0AT1 (SLC6A19) (Homo sapiens, UniProt Q695T7); test: Leucine uptake in CHO cells stably expressing human B0AT1 and collectrin; type: cell-based; conditions: 150 µM leucine, hit compounds at 30 µM, n = 3
T2 construct: expressed in transfected cells
T2 sequence (Q695T7 1-634): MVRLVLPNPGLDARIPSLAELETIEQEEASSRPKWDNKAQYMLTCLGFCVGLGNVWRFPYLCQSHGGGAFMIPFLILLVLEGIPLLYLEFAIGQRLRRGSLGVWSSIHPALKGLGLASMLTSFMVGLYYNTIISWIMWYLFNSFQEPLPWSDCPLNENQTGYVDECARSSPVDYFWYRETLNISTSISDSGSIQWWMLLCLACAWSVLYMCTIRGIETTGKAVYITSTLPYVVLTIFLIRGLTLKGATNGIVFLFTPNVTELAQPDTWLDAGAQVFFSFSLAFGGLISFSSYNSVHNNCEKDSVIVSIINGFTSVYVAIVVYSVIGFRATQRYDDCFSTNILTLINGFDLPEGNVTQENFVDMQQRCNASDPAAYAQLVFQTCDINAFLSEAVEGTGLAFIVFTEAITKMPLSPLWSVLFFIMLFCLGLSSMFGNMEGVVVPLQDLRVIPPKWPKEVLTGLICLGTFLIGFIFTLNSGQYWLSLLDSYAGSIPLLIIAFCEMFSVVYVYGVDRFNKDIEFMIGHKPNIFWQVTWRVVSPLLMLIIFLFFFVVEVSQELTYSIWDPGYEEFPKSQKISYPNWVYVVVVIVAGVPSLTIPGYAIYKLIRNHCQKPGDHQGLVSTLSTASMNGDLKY
T2 sequence (Q9HBJ8 15-222 partner): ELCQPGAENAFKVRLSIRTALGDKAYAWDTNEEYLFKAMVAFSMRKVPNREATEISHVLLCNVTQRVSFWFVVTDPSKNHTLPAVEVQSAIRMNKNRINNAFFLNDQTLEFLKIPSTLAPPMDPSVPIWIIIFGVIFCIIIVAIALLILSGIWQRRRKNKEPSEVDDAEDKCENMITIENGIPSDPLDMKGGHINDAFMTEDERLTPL

Structure (SMILES) | cell confluence (Figure 6F) (MDA-MB-231 cells) | inhibition of glucose uptake (GLUT1 [1]; 1 µM, 100 µM glucose) | Glucose uptake (nmol / mg protein x 6 min) (GLUT1 [1]; SKOV3, 1uM) | inhibition of glucose uptake (GLUT1 [2]; 1 µM, 100 µM glucose) | Glucose uptake (nmol / mg protein x 6 min) (GLUT1 [2]; MDA-MB-231, 1uM) | glutamine consumption (HCC1806 cells [3]) | oral availability and tolerability [4] | inhibition of glucose uptake (GLUT1 [5]; 1 µM, 100 µM glucose) | Glucose uptake (nmol / mg protein x 6 min) (GLUT1 [5]; HPAFII, 1uM) | cell confluence (Figure 6F) (HPAFII cells) | growth of HCC1806 cells (HCC1806 cells [6]) | lethality (SKOV3 xenografts; dose raised from 4.0 mg/kg/day to 7.5 mg/kg/day, 18-days treatment) | body weight (SKOV3 xenografts) | tumour growth (SKOV3 xenografts) | lactate production (HCC1806 cells [7]) | Leucine uptake, Mean (B0AT1 (SLC6A19)) [nmol / mg protein x 6 min]
Cc1c(NC(=O)c2cc(C(N)=O)nc3cc(F)ccc23)c(C(F)(F)F)nn1Cc1ccc(C#N)cc1 [Bay-876] | 97.85 and 98.65 and 98.1 | inhibited glucose uptake to comparable levels as 2-DG | 2.054 nmol / mg protein x 6 min and 1.028 nmol / mg protein x 6 min and 1.361 nmol / mg protein x 6 min | inhibited glucose uptake to comparable levels as 2-DG | 4.491 nmol / mg protein x 6 min and 4.087 nmol / mg protein x 6 min and 3.799 nmol / mg protein x 6 min | accelerated | orally available and tolerated in mice | inhibited glucose uptake to comparable levels as 2-DG | 2.423 nmol / mg protein x 6 min and 2.258 nmol / mg protein x 6 min and 2.749 nmol / mg protein x 6 min | 97.55 and 97.2 and 90.5 | quite sensitive | caused the death of all animals | did not reduce body weight | reduced the growth of SKOV3 xenografts | blocked completely | –
CCNC(=O)/C=C/c1cccc(Br)c1 [Cinromide] | – | – | – | – | – | – | – | – | – | – | – | – | – | – | – | 19.8324
